US8716530B2, “Facially amphiphilic polyaryl and polyarylalkynyl polymers and oligomers and uses thereof” (The Trustess of the University of Pennsylvania, priority 2004, dated 2014)
Values after ≈ are worked out from the molar mass of the structure shown. Values joined by “and” are separate entries in the source; they are usually repeats but may differ in a detail not shown here. Equal entries are not always repeated. Where two headings read alike, the source gives them in different places.

Experiments:
Candida albicans = assay: MIC100, clinical isolates of hospital-acquired pathogens (Table 7); type: cell-based; settings: one table line per isolate, RPMI synthetic medium, in µg/mL
E. coli [1] = assay: MIC100, modified NCCLS microbroth dilution (Table 6); type: cell-based; settings: Escherichia coli
[2] = test system: S. aureus and methicillin-resistant S. aureus (MRSA); assay: as above; type: cell-based; settings: Staphylococcus aureus
Y. pestis = assay: microbe, parasite or virus in culture; type: cell-based; settings: Yersinia pestis, 30 h, read-out: MIC100 Y. pestis (30 hr)
B. anthracis = assay: microbe, parasite or virus in culture; type: cell-based, Bacillus anthracis
S. aureus = type: cell-based; settings: S. aureus passaged at 0.5x MIC100; by passage 16 (17 consecutive passages)
human erythrocytes = assay: Hemolysis of human erythrocytes (HC50); settings: for Hemolysis HC50: one hour incubation, 50% hemoglobin release, Table 1
B. subtilis = assay: Modified NCCLS microbroth dilution MIC assay; settings: Bacillus subtilis; for MIC: read-out: B. subtilis MIC
E. coli [3] = assay: Modified NCCLS microbroth dilution MIC assay; type: cell-based; settings: Escherichia coli; for MIC: 18 to 20 hours incubation, OD 600 nm
Chaetomium globosum = assay: Antifungal MIC/MFC, NCCLS M38-A; type: cell-based
Experimental: (§1) MIC endpoints were determined for A. fumigatus, P. funiculosum, C. globosum and T. virens according to current NCCLS guidelines defined for testing A. fumigatus (NCCLS M38-A, 2002). […] Amphotericin B was included in the screen with C. albicans as a positive control. All MIC testing was done in 96 well microtiter panels using RPMI 1640 (with glutamine and without bicarbonate) broth as a growth media. Incubation was at 35° C., and growth was read at 48, 72, (and for some slow growing fungal species, 96 hours). […] MFC (minimal fungicidal concentrations) endpoints were calculated using a modified methodology based on the NCCLS defined methodology for measuring minimal bactericidal concentrations (MBC). Experimentation to calculate MFCs was undertaken only for those organisms for which an MIC endpoint was satisfactorily calculated. MFCs are defined as the concentration required to reduce the number of viable organisms by at least 90%.

Trichoderma virens = assay: Antifungal MIC/MFC, NCCLS M38-A; type: cell-based
Experimental: as §1

Penicillium funiculosum = assay: Antifungal MIC/MFC, NCCLS M38-A; type: cell-based
Experimental: as §1

Aspergillus fumigatus = assay: Antifungal MIC/MFC, NCCLS M38-A; type: cell-based
Experimental: as §1

Streptococcus pyogenes = assay: MIC100, clinical isolates of hospital-acquired pathogens (Table 7); type: cell-based; settings: Mueller Hinton+2-5% lysed horse blood, in µg/mL
Haemophilus influenzae = assay: as above; type: cell-based; settings: Mueller Hinton+NAD+yeast extract+hematin
Streptococcus pneumoniae = assay: as above; type: cell-based; settings: for mic (MIC100) Streptococcus pneumoniae: clinical isolates, no phenotype given; for mic (MIC100) Streptococcus pneumoniae / mic (MIC100) Streptococcus pneumoniae PEN-R: Mueller Hinton+2-5% lysed horse blood, in µg/mL; for mic (MIC100) Streptococcus pneumoniae ATCC 49619: control strain ATCC 49619; for mic (MIC100) Streptococcus pneumoniae PEN-R: penicillin-resistant clinical isolates
Enterococcus faecalis = assay: as above; type: cell-based; settings: control strain ATCC 29212
[4] = concentration reducing viable organisms by at least 90%

## C[C@@H]1[C@H](O)[C@@H](C)/C=C/C=C/C=C/C=C/C=C/C=C/C=C/[C@H](O[C@@H]2O[C@H](C)[C@@H](O)[C@H](N)[C@@H]2O)C[C@@H]2O[C@](O)(C[C@@H](O)C[C@@H](O)[C@H](O)CC[C@@H](O)C[C@@H](O)CC(=O)O[C@H]1C)C[C@H](O)[C@H]2C(=O)O [AMP B, amphotericin B]
Candida albicans
  mic (MIC100) Candida albicans: 2

## NCC[C@H](O)C(=O)N[C@@H]1C[C@H](N)[C@@H](O[C@H]2O[C@H](CN)[C@@H](O)[C@H](O)[C@H]2O)[C@H](O)[C@H]1O[C@H]1O[C@H](CO)[C@@H](O)[C@H](N)[C@H]1O [Amikacin, amikacin, reference compound]
E. coli [1]; strain ATCC25922, read-out: MIC100 E. coli ATCC25922
  MIC: 1 µg/mL (≈ 1.71 µM)
E. coli [1]; strain OC2530, read-out: MIC100 E. coli OC2530
  MIC: 2 µg/mL (≈ 3.42 µM)
[2]; ATCC 29213 / MRSA, strain ATCC29213 (Table 6), read-out: MIC100 S. aureus ATCC29213
  MIC: 2 µg/mL (≈ 3.42 µM)
[2]; MRSA, methicillin-resistant S. aureus OC2878, read-out: MIC100 MRSA OC2878
  MIC: 64 µg/mL (≈ 109 µM)

## O=C(O)c1cn(C2CC2)c2cc(N3CCNCC3)c(F)cc2c1=O [Ciprofloxacin, ciprofloxacin, reference compound]
Y. pestis
  MIC: 0.0312 µg/mL (≈ 0.0942 µM)
B. anthracis; Bacillus anthracis, 24 h, read-out: MIC100 B. anthracis (24 hr)
  MIC: 0.125 to 0.25 µg/mL (≈ 0.377 to 0.754 µM)
B. anthracis; growth recorded at 2 hour intervals over 24 hours (FIG. 3)
  Time course of growth inhibition of Bacillus anthracis: transient cell growth was observed at early time points
S. aureus
  increase in MIC on serial passage: 125 fold

## N=C(N)NCCc1cc(Br)cc(C#Cc2cccc(C#Cc3cc(Br)cc(CCNC(=N)N)c3)c2)c1 [Compound 2]
Human erythrocytes; human erythrocytes
  Hemolysis HC50: 8 µg/mL
Human erythrocytes; human erythrocytes, Table 2
  HC50: 8.5 µg/mL
Human erythrocytes; ratio of HC50 to E. coli MIC
  Selectivity HC50/MIC E.coli: 5.3
B. subtilis
  MIC: 1.6 µg/mL (≈ 2.64 µM)
B. subtilis; read-out: MIC90 B. subtilis
  MIC90: 1.6 µg/mL (≈ 2.64 µM)
E. coli [3]; read-out: MIC90 E. Coli
  MIC90: 1.6 µg/mL (≈ 2.64 µM)
E. coli [3]
  MIC: 3.2 µg/mL (≈ 5.28 µM)

## NCCNC(=O)c1cc(Br)cc(C#Cc2cccc(C#Cc3cc(Br)cc(C(=O)NCCN)c3)c2)c1 [Compound 4]
Human erythrocytes; human erythrocytes
  Hemolysis HC50: 12.5 µg/mL
B. subtilis
  MIC: 25 µg/mL (≈ 41.1 µM)
E. coli [3]
  MIC: 50 µg/mL (≈ 82.2 µM)

## CCCCCOc1c(I)cc(CN)cc1C#Cc1cccc(C#Cc2cc(CN)cc(I)c2OCCCCC)c1 [Compound 5]
Human erythrocytes; human erythrocytes
  Hemolysis HC50: <12.5 µg/mL
B. subtilis
  MIC: 100 µg/mL (≈ 131 µM)
E. coli [3]
  MIC: 25 µg/mL (≈ 32.9 µM)

## CCCCCOc1c(I)cc(CNC(=N)N)cc1C#Cc1cccc(C#Cc2cc(CNC(=N)N)cc(I)c2OCCCCC)c1 [Compound 6]
Human erythrocytes; human erythrocytes
  Hemolysis HC50: 5 µg/mL
B. subtilis
  MIC: 3.2 µg/mL (≈ 3.79 µM)
E. coli [3]
  MIC: 6.4 µg/mL (≈ 7.58 µM)

## OC(Cn1cncn1)(Cn1cncn1)c1ccc(F)cc1F [Fluconazole, reference compound]
Chaetomium globosum; RPMI 1640, 35° C.
  MIC Chaetomium globosum: 0.25/0.25
Chaetomium globosum; [4]
  MFC Chaetomium globosum: 0.25/0.25
Trichoderma virens; RPMI 1640, 35° C.
  MIC Trichoderma virens: >128/>128
Trichoderma virens; [4]
  MFC Trichoderma virens: >128/>128
Penicillium funiculosum; RPMI 1640, 35° C.
  MIC Penicillium funiculosum: 4 µg/mL (≈ 13.1 µM)
Penicillium funiculosum; [4]
  MFC Penicillium funiculosum: > 32 µg/mL
Aspergillus fumigatus; RPMI 1640, 35° C.
  MIC Aspergillus fumigatus: >32/>32
Aspergillus fumigatus; [4]
  MFC Aspergillus fumigatus: >32/>32

## C[C@H]1COc2c(N3CCN(C)CC3)c(F)cc3c(=O)c(C(=O)O)cn1c23 [LEVOFLOX, levofloxacin]
Streptococcus pyogenes
  mic (MIC100) Streptococcus pyogenes: 0.25 and 0.5
Candida albicans
  mic (MIC100) Candida albicans: >8
Haemophilus influenzae
  mic (MIC100) Haemophilus influenzae: ≦0.03
Streptococcus pneumoniae
  mic (MIC100) Streptococcus pneumoniae: 1 and 0.5
  mic (MIC100) Streptococcus pneumoniae ATCC 49619: 0.5 µg/mL
  mic (MIC100) Streptococcus pneumoniae PEN-R: 0.5
Enterococcus faecalis
  mic (MIC100) Enterococcus faecalis ATCC 29212: 0.5 µg/mL

## CC(=O)NC[C@H]1CN(c2ccc(N3CCOCC3)c(F)c2)C(=O)O1 [LINEZOLID, linezolid]
Streptococcus pyogenes
  mic (MIC100) Streptococcus pyogenes: 1
Candida albicans
  mic (MIC100) Candida albicans: >8
Haemophilus influenzae; in µg/mL
  mic (MIC100) Haemophilus influenzae: >8 and 8
Streptococcus pneumoniae
  mic (MIC100) Streptococcus pneumoniae: 1
  mic (MIC100) Streptococcus pneumoniae ATCC 49619: 1 µg/mL
  mic (MIC100) Streptococcus pneumoniae PEN-R: 0.5 and 1
Enterococcus faecalis
  mic (MIC100) Enterococcus faecalis ATCC 29212: 2 µg/mL

## CN[C@H](CC(C)C)C(=O)N[C@H]1C(=O)N[C@@H](CC(N)=O)C(=O)N[C@H]2C(=O)N[C@H]3C(=O)N[C@H](C(=O)N[C@H](C(=O)O)c4cc(O)cc(O)c4-c4cc3ccc4O)[C@H](O)c3ccc(c(Cl)c3)Oc3cc2cc(c3O[C@@H]2O[C@H](CO)[C@@H](O)[C@H](O)[C@H]2O[C@H]2C[C@](C)(N)[C@H](O)[C@H](C)O2)Oc2ccc(cc2Cl)[C@H]1O [VANCO, vancomycin]
Streptococcus pyogenes
  mic (MIC100) Streptococcus pyogenes: 0.5
Candida albicans
  mic (MIC100) Candida albicans: >32
Haemophilus influenzae; in µg/mL
  mic (MIC100) Haemophilus influenzae: >32
Streptococcus pneumoniae
  mic (MIC100) Streptococcus pneumoniae: 0.5
  mic (MIC100) Streptococcus pneumoniae ATCC 49619: 0.5 µg/mL
  mic (MIC100) Streptococcus pneumoniae PEN-R: 0.5 and 1
Enterococcus faecalis
  mic (MIC100) Enterococcus faecalis ATCC 29212: 4 µg/mL

## CCn1cc(C(=O)O)c(=O)c2cc(F)c(N3CCNCC3)cc21 [norfloxacin]
S. aureus
  increase in MIC on serial passage: 160 fold
